From PubChem BioAssay AID328 (DTP/NCI, 2004) come the findings set out here.

Several values for one entry are separate records, joined by “and”; a condition that tells them apart may be missing. Equal values may be shown once. Inconclusive results and toxic doses are left out.

The subject of the test is BDF1 mice, P388 leukemia ip, median survival T/C. Kind of test: NCI In Vivo Anticancer Drug Screen. Data for tumor model P388 Leukemia (intraperitoneal) in B6D2F1 (BDF1) mice. To be noted: endpoint: median survival time, higher = longer survival. The essentials: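 Read-out is survival of treated animals expressed relative to the vehicle group, as a T/C ratio.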
[1] abbreviates: dose: 50.0 mg/kg/injection, schedule: Q01DX009 (ip), vehicle: saline with Tween-80.
[2] abbreviates: dose: 100.0 mg/kg/injection, schedule: Q01DX009 (ip), vehicle: saline sonified.
Setting [3] is: dose: 100.0 mg/kg/injection, schedule: Q01DX009 (ip), vehicle: saline with Tween-80.
Where [4] appears, read: dose: 200.0 mg/kg/injection, schedule: Q01DX009 (ip), vehicle: saline with Tween-80.
[5] abbreviates: dose: 100.0 mg/kg/injection, schedule: Q01DX009 (ip), vehicle: saline.
[6] abbreviates: dose: 100.0 mg/kg/injection, schedule: Q04DX003 (ip), vehicle: Klucel (hydroxypropylcellulose) (HPC).
The mark [7] stands for this setting: dose: 200.0 mg/kg/injection, schedule: Q04DX003 (ip), vehicle: Klucel (hydroxypropylcellulose) (HPC).

For the compound `CC1(C)N=C(N)N=C(N)N1c1ccc(CCC(=O)Nc2ccc(S(=O)(=O)F)cc2)cc1`, the T/C (dose: 0.88 mg/kg/injection, schedule: Q01DX009 (ip), vehicle: saline with Tween-80) is 108 % of control; the T/C (dose: 1.32 mg/kg/injection, schedule: Q01DX009 (ip), vehicle: saline with Tween-80) was 112 % of control; the T/C (dose: 2.0 mg/kg/injection, schedule: Q01DX009 (ip), vehicle: saline with Tween-80) is 116 % of control; the T/C (dose: 12.5 mg/kg/injection, schedule: Q01DX009 (ip), vehicle: saline with Tween-80) was 150 % of control; the T/C (dose: 25.0 mg/kg/injection, schedule: Q01DX009 (ip), vehicle: saline with Tween-80) was 163 % of control; the T/C (dose: 44.0 mg/kg/injection, schedule: Q04DX003 (ip), vehicle: saline sonified) was 122 % of control. Further, the T/C by setting is: under setting [1], 159 % of control; (dose: 66.0 mg/kg/injection, schedule: Q04DX003 (ip), vehicle: saline sonified) 111 % of control; under setting [2], 240 % of control; (dose: 100.0 mg/kg/injection, schedule: Q04DX003 (ip), vehicle: saline sonified) 111 % of control; (dose: 150.0 mg/kg/injection, schedule: Q04DX003 (ip), vehicle: saline sonified) 122 % of control; (dose: 200.0 mg/kg/injection, schedule: Q01DX009 (ip), vehicle: saline sonified) 95 % of control. In addition, where the note is “dose: 400.0 mg/kg/injection, schedule: Q01DX009 (ip), vehicle: saline sonified”, the T/C was 90 % of control.

In the case of `COc1ccc(-c2c(CC(=O)O)c3cc(OC)ccc3n2Cc2ccc(Cl)cc2)cc1`, the T/C is 90 % of control under setting [3]; 113 % of control under setting [4]; 90 % of control (dose: 400.0 mg/kg/injection, schedule: Q01DX009 (ip), vehicle: saline with Tween-80).

For the compound `CCOP(=O)(OCC)OCCCN(CC)CC`, the T/C is 118 % of control (dose: 25.0 mg/kg/injection, schedule: Q01DX009 (ip), vehicle: saline); 114 % of control (dose: 50.0 mg/kg/injection, schedule: Q01DX009 (ip), vehicle: saline); 100 % of control (dose: 50.0 mg/kg/injection, schedule: Q04DX003 (ip), vehicle: saline); 100 % of control under setting [5]; 107 % of control (dose: 100.0 mg/kg/injection, schedule: Q04DX003 (ip), vehicle: saline); 89 % of control (dose: 200.0 mg/kg/injection, schedule: Q01DX009 (ip), vehicle: saline). The T/C by setting is: (dose: 200.0 mg/kg/injection, schedule: Q04DX003 (ip), vehicle: saline) 110 % of control; (dose: 300.0 mg/kg/injection, schedule: Q04DX003 (ip), vehicle: saline) 105 % of control.

With `CC1(C)N=C(N)N=C(N)N1c1ccc(OCC(=O)N2CCOCC2)c(Cl)c1`, the T/C was 107 % of control (dose: 66.0 mg/kg/injection, schedule: Q01DX009 (ip), vehicle: saline); 172 % of control under setting [2]; 103 % of control under setting [5]; 111 % of control (dose: 150.0 mg/kg/injection, schedule: Q01DX009 (ip), vehicle: saline).

In the case of `CC(=O)O[C@H]1C(=O)[C@@]2(C)[C@H]([C@H](OC(=O)c3ccccc3)[C@]3(O)C[C@H](OC(=O)[C@H](O)[C@@H](NC(=O)c4ccccc4)c4ccccc4)C(C)=C1C3(C)C)[C@]1(OC(C)=O)CO[C@@H]1C[C@@H]2O`, the T/C runs as follows: (dose: 5.0 mg/kg/injection, schedule: Q01DX010 (ip), vehicle: steriod suspending solution) 186 % of control; (dose: 10.0 mg/kg/injection, schedule: Q01DX010 (ip), vehicle: steriod suspending solution) 172 % of control; (dose: 12.5 mg/kg/injection, schedule: Q04DX003 (iv), vehicle: Klucel (hydroxypropylcellulose) (HPC)) 100 % of control; (dose: 20.0 mg/kg/injection, schedule: Q01DX010 (ip), vehicle: steriod suspending solution) 190 % of control; (dose: 21.6 mg/kg/injection, schedule: Q04DX003 (ip), vehicle: Klucel (hydroxypropylcellulose) (HPC)) 171 % of control; (dose: 25.0 mg/kg/injection, schedule: Q01DX010 (ip), vehicle: steriod suspending solution) 113 % of control. The T/C runs as follows: (dose: 25.0 mg/kg/injection, schedule: Q04DX003 (ip), vehicle: Klucel (hydroxypropylcellulose) (HPC)) 162 % of control; (dose: 25.0 mg/kg/injection, schedule: Q04DX003 (iv), vehicle: Klucel (hydroxypropylcellulose) (HPC)) 98 % of control; (dose: 25.9 mg/kg/injection, schedule: Q04DX003 (ip), vehicle: Klucel (hydroxypropylcellulose) (HPC)) 179 % of control; (dose: 43.2 mg/kg/injection, schedule: Q04DX003 (ip), vehicle: Klucel (hydroxypropylcellulose) (HPC)) 170 % of control; (dose: 50.0 mg/kg/injection, schedule: Q04DX003 (ip), vehicle: Klucel (hydroxypropylcellulose) (HPC)) 165 % of control; (dose: 50.0 mg/kg/injection, schedule: Q04DX003 (iv), vehicle: Klucel (hydroxypropylcellulose) (HPC)) 103 % of control. Moreover, the T/C (dose: 60.0 mg/kg/injection, schedule: Q04DX003 (ip), vehicle: Klucel (hydroxypropylcellulose) (HPC)) was 102 % of control; the T/C (dose: 72.0 mg/kg/injection, schedule: Q04DX003 (ip), vehicle: Klucel (hydroxypropylcellulose) (HPC)) was 166 % of control; the T/C under setting [6] is 173 % of control; the T/C (dose: 120.0 mg/kg/injection, schedule: Q04DX003 (ip), vehicle: Klucel (hydroxypropylcellulose) (HPC)) was 100 % of control.

With `CC(=O)OCC1OC(n2cc(C(F)(F)F)c(=O)[nH]c2=O)CC1OC(C)=O` (centres undefined), the T/C reads like this: (dose: 62.5 mg/kg/injection, schedule: Q01DX009 (ip), vehicle: Klucel (hydroxypropylcellulose) (HPC)) 95 % of control; (dose: 100.0 mg/kg/injection, schedule: Q01DX009 (ip), vehicle: Klucel (hydroxypropylcellulose) (HPC)) 100 % of control; (dose: 125.0 mg/kg/injection, schedule: Q01DX009 (ip), vehicle: Klucel (hydroxypropylcellulose) (HPC)) 109 % of control; (dose: 200.0 mg/kg/injection, schedule: Q01DX009 (ip), vehicle: Klucel (hydroxypropylcellulose) (HPC)) 100 % of control; (dose: 250.0 mg/kg/injection, schedule: Q01DX009 (ip), vehicle: Klucel (hydroxypropylcellulose) (HPC)) 90 % of control; (dose: 400.0 mg/kg/injection, schedule: Q01DX009 (ip), vehicle: Klucel (hydroxypropylcellulose) (HPC)) 105 % of control. Besides, the T/C (dose: 500.0 mg/kg/injection, schedule: Q01DX009 (ip), vehicle: Klucel (hydroxypropylcellulose) (HPC)) was 109 % of control.

In the case of `COC(=O)c1ccc(N)c(C(Sc2ccccc2)c2ccccc2)c1` (centres undefined), the T/C was 98 % of control (dose: 50.0 mg/kg/injection, schedule: Q04DX002 (ip), vehicle: saline with Tween-80); 90 % of control (dose: 100.0 mg/kg/injection, schedule: Q04DX002 (ip), vehicle: saline with Tween-80); 99 % of control (dose: 200.0 mg/kg/injection, schedule: Q04DX002 (ip), vehicle: saline with Tween-80).

On to `O=C(O)CCCCCCCCCCCCO`, for which the T/C reads like this: under setting [6], 109 % of control; under setting [7], 90 % of control; (dose: 400.0 mg/kg/injection, schedule: Q04DX003 (ip), vehicle: Klucel (hydroxypropylcellulose) (HPC)) 90 % of control.

As to `Cn1nc(NC(=O)C(F)(F)F)c2nccnc21`, the T/C runs as follows: (dose: 100.0 mg/kg/injection, schedule: Q04DX003 (ip), vehicle: saline with Tween-80) 100 % of control; (dose: 200.0 mg/kg/injection, schedule: Q04DX003 (ip), vehicle: saline with Tween-80) 100 % of control; (dose: 400.0 mg/kg/injection, schedule: Q04DX003 (ip), vehicle: saline with Tween-80) 100 % of control.

As for `c1ccc(C23c4ccccc4C(=NC4CCCCC4)C2N3C2CCCCC2)cc1` (centres undefined), the T/C reads like this: under setting [6], 90 % of control; under setting [7], 100 % of control.

Take `CC(=O)OCC1OC(n2ccc(N)nc2=O)C(OC(C)=O)C1OC(C)=O` (centres undefined): the T/C under setting [1] is 170 % of control; the T/C under setting [3] was 188 % of control; the T/C (dose: 177.0 mg/kg/injection, schedule: Q04DX003 (ip), vehicle: saline) was 177 % of control; the T/C under setting [4] is 106 % of control; the T/C (dose: 266.0 mg/kg/injection, schedule: Q04DX003 (ip), vehicle: saline) was 181 % of control and 195 % of control; the T/C (dose: 400.0 mg/kg/injection, schedule: Q04DX003 (ip), vehicle: saline) was 187 % of control and 204 % of control. Further, for the setting “dose: 600.0 mg/kg/injection, schedule: Q04DX003 (ip), vehicle: saline”, the T/C was 263 % of control and 200 % of control.
